Drawing on US10335392B2, “Cyclic compounds useful as modulators of TNF α” (BRISTOL-MYERS SQUIBB COMPANY, priority 2015, dated 2019), this text covers IC50 for 18 compounds.

Some results are limits rather than exact numbers.

In the assay the target is TNFα (Homo sapiens (Human), UniProt P01375). Description: TNF induced HEK-Blue assay. The note with it: TNFα 0.5 ng/ml; HEK-Blue-CD40L cells, NF-kB-driven secreted alkaline phosphatase reporter; 18 h. In kind it is cell-based. How it is done: TNF or CD40L-Induced HEK-Blue Assay
TNFα, sequence (P01375 77-233): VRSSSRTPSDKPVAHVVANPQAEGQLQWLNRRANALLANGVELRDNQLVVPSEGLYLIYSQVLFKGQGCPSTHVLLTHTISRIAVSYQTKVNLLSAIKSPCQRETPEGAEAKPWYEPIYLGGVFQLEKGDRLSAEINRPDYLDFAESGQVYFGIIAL
Test compounds serially diluted in DMSO were plated in an assay plate (LABCYTE, Cat. # LP-0200) at final concentrations ranging from 0.004 μM to 25 μM. TNFα (final concentration 0.5 ng/ml) or CD40L (final concentration 30 ng/ml) in assay buffer [DMEM, 4.5 g/l glucose (Gibco, Cat. 21063-029), 10% FBS (Sigma, F4135), 1% Penicillin-Streptomycin (Gibco, Cat. 15140-122), 1% Anti-Anti (Gibco, Cat. 15240-112) and 2 mM L-glutamine (Gibco, Cat. 25030-081)] was then added to the assay plate. After a 30 minute pre-incubation at 37° C. and 5% CO2, HEK-Blue™-CD40L cells (INVIVOGEN, Cat. Code hkb-cd40) containing a NF-kB-driven secreted alkaline phosphatase reporter gene were seeded into the assay plate at a density of 20,000 cells per well. This plate was then incubated for 18 h at 37° C. and 5% CO2. Secreted alkaline phosphatase expression was measured using QUANTI-Blue™ (INVIVOGEN, Cat. Code rep-qb1) according to manufacturer's specifications and the assay plate was read on a PerkinElmer Envision at 620 nm.
Inhibition data for the test compound over a range of concentrations was plotted as percentage inhibition of the test compound (100%=maximum inhibition). IC50 values were determined after correcting for background [(sample read−mean of low control)/(mean of high control−mean of low control)] where by the low control is DMSO without stimulation and high control is DMSO with stimulation. The IC50 is defined as the concentration of test compound which produces 50% inhibition and was quantified using the 4 parameter logistic equation to fit the data.
As usually defined, the IC50 is the concentration needed to halve the response being measured. Low readings indicate greater potency in that assay, high ones weaker potency in that assay. Regarding `CC(C)(O)c1ncc(-c2cc3c(cc2F)nc2n3[C@@H](c3ccccc3OC(F)F)[C@H]3C[C@@H]23)cn1` (racemic) [Example 1, rac-2-(5-((1aR,8R,8aS)-8-(2-(difluoromethoxy)phenyl)-4-fluoro-1,1a,8,8a-tetrahydrobenzo[d]cyclopropa[3,4]pyrrolo[1,2-a]imidazol-5-yl)pyrimidin-2-yl) propan-2-ol], the IC50 was less than 1 µM.

The compound `Fc1cc2nc3n(c2cc1Br)[C@@H](c1ccccc1OC(F)F)[C@@H]1C[C@H]31` (racemic) [Example 11, rac-(1aR,8S,8aS)-5-bromo-8-(2-(difluoromethoxy)phenyl)-4-fluoro-1,1a,8,8a-tetrahydrobenzo[d]cyclopropa[3,4]pyrrolo[1,2-a]imidazole] yielded an IC50 of 10 to 25 µM.

As to `CC(C)(O)c1ncc(-c2cc3c(cc2F)nc2n3[C@@H](c3ccccc3OC(F)F)[C@@H]3C[C@H]23)cn1` (racemic) [Example 20, rac-2-(5-((1aR,8S,8aS)-8-(2-(difluoromethoxy)phenyl)-4-fluoro-1,1a,8,8a-tetrahydrobenzo[d]cyclopropa[3,4]pyrrolo[1,2-a]imidazol-5-yl)pyrimidin-2-yl)propan-2-ol], the IC50 was less than 1 µM.

`CC(C)(O)c1ncc(-c2cc3c(cc2F)nc2n3[C@@H](c3ccccc3Oc3ccccc3)[C@@H]3C[C@H]23)cn1` (racemic) [Example 23, rac-2-(5-((1aR,8S,8aS)-4-fluoro-8-(2-phenoxyphenyl)-1,1a,8,8a-tetrahydrobenzo[d]cyclopropa[3,4]pyrrolo[1,2-a]imidazol-5-yl)pyrimidin-2-yl)propan-2-ol] showed an IC50 of 1 to 10 µM.

In the case of `CC(C)(O)c1ncc(-c2cc3c(cc2F)nc2n3[C@@H](c3ccccc3Oc3ccccc3)[C@H]3C[C@@H]23)cn1` (racemic) [Example 24, rac-2-(5-((1aR,8R,8aS)-4-fluoro-8-(2-phenoxyphenyl)-1,1a,8,8a-tetrahydrobenzo[d]cyclopropa[3,4]pyrrolo[1,2-a]imidazol-5-yl)pyrimidin-2-yl)propan-2-ol], the IC50 lay in the range of 1 to 10 µM.

Regarding `CC(C)(O)c1ncc(-c2cc3c(cc2F)nc2n3[C@@H](c3ccccc3OCc3ccccc3)[C@@H]3C[C@H]23)cn1` (racemic) [Example 25, rac-2-(5-((1aR,8S,8aS)-8-(2-(benzyloxy)phenyl)-4-fluoro-1,1a,8,8a-tetrahydrobenzo[d]cyclopropa[3,4]pyrrolo[1,2-a]imidazol-5-yl)pyrimidin-2-yl)propan-2-ol], the IC50 fell in the range of 1 to 10 µM.

The compound `CC(C)(O)c1ncc(-c2cc3c(cc2F)nc2n3[C@@H](c3ccccc3OCc3ccccc3)[C@H]3C[C@@H]23)cn1` (racemic) [Example 26, rac-2-(5-((1aR,8R,8aS)-8-(2-(benzyloxy)phenyl)-4-fluoro-1,1a,8,8a-tetrahydrobenzo[d]cyclopropa[3,4]pyrrolo[1,2-a]imidazol-5-yl)pyrimidin-2-yl)propan-2-ol] showed an IC50 of 10 to 25 µM.

Compound `COc1ccc(-c2ccc3nc4n(c3c2)[C@@H](c2ccccc2)[C@H]2CNC[C@@H]42)cn1` (racemic) [Example 36, rac-(3aR,10S,10aS)-7-(6-methoxypyridin-3-yl)-10-phenyl-1,2,3,3a,10,10a-hexahydrobenzo[d]pyrrolo[3′,4′:3,4]pyrrolo[1,2-a]imidazole] yielded an IC50 of 10 to 25 µM.

In the case of `COc1ccc(-c2ccc3nc4n(c3c2)[C@@H](c2ccccc2)[C@H]2CN(C(=O)NC(C)(C)C)C[C@@H]42)cn1` (racemic) [Example 37, rac-(3aR,10S,10aS)—N-(tert-butyl)-7-(6-methoxypyridin-3-yl)-10-phenyl-3,3a,10,10a-tetrahydrobenzo[d]pyrrolo[3′,4′:3,4]pyrrolo[1,2-a]imidazole-2(1H)-carboxamide], the IC50 was in the range of 1 to 10 µM.

As for `COc1ccc(-c2ccc3nc4n(c3c2)[C@@H](c2ccccc2)[C@H]2CN(C(C)=O)C[C@@H]42)cn1` (racemic) [Example 38, rac-1-((3aR,10S,10aS)-7-(6-methoxypyridin-3-yl)-10-phenyl-3,3a,10,10a-tetrahydrobenzo[d]pyrrolo[3′,4′:3,4]pyrrolo[1,2-a]imidazol-2(1H)-yl)ethan-1-one], the IC50 was 10 to 25 µM.

`CCNC(=O)N1C[C@H]2[C@@H](C1)c1nc3ccc(-c4ccc(OC)nc4)cc3n1[C@H]2c1ccccc1` (racemic) [Example 39, rac-(3aR,10S,10aS)—N-ethyl-7-(6-methoxypyridin-3-yl)-10-phenyl-3,3a,10,10a-tetrahydrobenzo[d]pyrrolo[3′,4′:3,4]pyrrolo[1,2-a]imidazole-2(1H)-carboxamide] showed an IC50 of 1 to 10 µM.

As for `COc1ccc(-c2ccc3nc4n(c3c2)[C@@H](c2ccccc2)[C@H]2CN(C(=O)OC(C)(C)C)C[C@@H]42)cn1` (racemic) [Example 40, rac-tert-butyl (3aR,10S,10aS)-7-(6-methoxypyridin-3-yl)-10-phenyl-3,3a,10,10a-tetrahydrobenzo[d]pyrrolo[3′,4′:3,4]pyrrolo[1,2-a]imidazole-2(1H)-carboxylate], the IC50 was in the range of 10 to 25 µM.

For `COc1ccc(-c2ccc3nc4n(c3c2)[C@@H](c2ccccc2)[C@H]2CN(C(=O)c3ccccc3)C[C@@H]42)cn1` (racemic) [Example 41, rac-((3aR,10S,10aS)-7-(6-methoxypyridin-3-yl)-10-phenyl-3,3a,10,10a-tetrahydrobenzo[d]pyrrolo[3′,4′:3,4]pyrrolo[1,2-a]imidazol-2(1H)-yl)(phenyl)methanone], the IC50 was 10 to 25 µM.

Consider `COc1ccc(-c2ccc3nc4n(c3c2)[C@@H](c2ccccc2)[C@H]2CC=CC[C@@H]42)cn1` (racemic) [Example 42, rac-(4aR,11R,11aS)-8-(6-methoxypyridin-3-yl)-1-phenyl-4,4a,11,11a-tetrahydro-1H-benzo[4,5]imidazo[2,1-a]isoindole], for which the IC50 is 10 to 25 µM.

Consider `CNC(=O)c1ccc(-c2ccc3nc4n(c3c2)[C@@H](c2cc(C)ccc2C)[C@H]2[C@H](c3ccccc3)[C@@H]42)cn1` (racemic) [Example 43, rac-5-((1R,1aS,8S,8aR)-8-(2,5-dimethylphenyl)-1-phenyl-1,1a,8,8a-tetrahydrobenzo[d]cyclopropa[3,4]pyrrolo[1,2-a]imidazol-5-yl)-N-methylpicolinamide], for which the IC50 lay in the range of 10 to 25 µM.

`CC(C)(O)c1ncc(-c2cc3c(cc2F)nc2n3[C@H](c3ccccc3OC(F)F)[C@H]3C[C@@H]23)cn1` (stereo in doubt) [Example 21, 2-(5-((1aR,8S,8aS)-8-(2-(difluoromethoxy)phenyl)-4-fluoro-1,1a,8,8a-tetrahydrobenzo[d]cyclopropa[3,4]pyrrolo[1,2-a]imidazol-5-yl)pyrimidin-2-yl)propan-2-ol] came in with an IC50 of less than 1 µM.

Compound `CC(C)(O)c1ncc(-c2cc3c(cc2F)nc2n3[C@@H](c3ccccc3OC(F)F)[C@H]3C[C@@H]23)cn1` [Example 2, 2-(5-((1aR,8R,8aS)-8-(2-(difluoromethoxy)phenyl)-4-fluoro-1,1a,8,8a-tetrahydrobenzo[d]cyclopropa[3,4]pyrrolo[1,2-a]imidazol-5-yl)pyrimidin-2-yl)propan-2-ol] came in with an IC50 of less than 1 µM.

`CC(C)(O)c1ncc(-c2cc3c(cc2F)nc2n3[C@H](c3ccccc3OC(F)F)[C@@H]3C[C@H]23)cn1` [Example 3, 2-(5-((1aS,8S,8aR)-8-(2-(difluoromethoxy)phenyl)-4-fluoro-1,1a,8,8a-tetrahydrobenzo[d]cyclopropa[3,4]pyrrolo[1,2-a]imidazol-5-yl)pyrimidin-2-yl)propan-2-ol] yielded an IC50 of less than 1 µM.
